The compounds below were run against T1, hAHR (Homo sapiens, UniProt P35869) (assay: hAHR nuclear translocation assay). Details: Jump-In T-REx HEK293 cells expressing AhR-EGFP; 45 min incubation; ratio of EGFP intensity in nuclear over cytosol; 20-point curve.
T1 construct: expressed in transfected cells
T1 sequence (P35869 11-848): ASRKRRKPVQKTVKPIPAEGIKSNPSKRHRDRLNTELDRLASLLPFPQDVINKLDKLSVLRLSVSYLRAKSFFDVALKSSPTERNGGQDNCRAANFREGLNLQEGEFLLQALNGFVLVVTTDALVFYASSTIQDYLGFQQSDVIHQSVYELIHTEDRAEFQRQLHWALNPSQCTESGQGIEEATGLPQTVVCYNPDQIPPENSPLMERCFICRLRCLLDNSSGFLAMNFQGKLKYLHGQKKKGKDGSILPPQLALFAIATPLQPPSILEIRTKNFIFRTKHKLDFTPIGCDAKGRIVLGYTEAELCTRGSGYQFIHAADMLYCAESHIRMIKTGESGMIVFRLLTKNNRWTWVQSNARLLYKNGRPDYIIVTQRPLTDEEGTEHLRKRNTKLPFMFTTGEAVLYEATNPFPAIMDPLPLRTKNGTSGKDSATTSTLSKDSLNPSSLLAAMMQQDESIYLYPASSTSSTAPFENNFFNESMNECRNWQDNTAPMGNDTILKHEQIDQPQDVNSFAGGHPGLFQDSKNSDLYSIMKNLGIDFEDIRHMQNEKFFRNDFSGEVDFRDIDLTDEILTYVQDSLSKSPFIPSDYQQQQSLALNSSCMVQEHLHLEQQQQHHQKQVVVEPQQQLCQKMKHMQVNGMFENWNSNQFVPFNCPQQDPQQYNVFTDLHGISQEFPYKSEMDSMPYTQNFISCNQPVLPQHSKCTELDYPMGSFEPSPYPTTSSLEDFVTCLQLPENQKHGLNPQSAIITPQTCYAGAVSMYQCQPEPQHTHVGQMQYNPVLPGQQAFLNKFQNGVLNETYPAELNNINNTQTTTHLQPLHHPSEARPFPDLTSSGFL
Format: cell-based
Description: Stable cell lines were established using Jump-In™ T-REx™ HEK293 Retargeting Kit (Life Technologies). hAhR cDNA was cloned into the pJTI R4 CMV-TO EGFP vector. The EGFP was cloned to the C-terminal of AHR to form AhR-EGFP chimera. The pJTI R4 CMV-TO AhR-EGFP vector was transfected using FuGENE® HD into Jump-In™ T-REx™ HEK293 cells. Transfected cells were selected using 2.5 mg/ml G418 for 10 to 14 days, then expanded, harvested, and suspended in freeze media (FBS with 8% DMSO) at 2×10^7 cells/mL, and aliquots were stored in liquid nitrogen. One day before the assay date, cells were thawed and resuspended in DMEM with 5% FBS in the presence of 1 μg/mL Doxycycline and plated into ploy-L-Lysine coated […]-384 ULTRA Microplates (Perkin Elmer) at 12,000 to 15,000 cells per well and incubated at 37° C. and 5% CO2 overnight. On the assay date, compound was serially diluted (1:2) into 384-well nunc plates with DMSO using acoustic dispensing (ECHO). The dose response was a 20-point curve. Compound was resuspended in 40 μL of DMEM plus 0.1% BSA. The culture media was damped and 25 μL of DMEM plus 0.1% BSA was added, then 25 μL of compound in DMEM plus 0.1% BSA was added into cell plates. Cells were incubated with compounds at 37° C. and 5% CO2 for 45 min.
The final DMSO concentration was 0.2%. The media was damped after 45 minutes incubation. The cells were fixed with 40 μL of cold MeOH (−20° C.) for 20 min. The MeOH was damped and 50 μL of DPBS containing 1 μg/mL Hochst was added into the cell plates. The intensity of EGFP was quantitated by using OPERA PHENIX® or Operetta™ high content image system (Perkin Elmer) with 20× Water Objective and five field per well. The ratio of EGFP fluorescent intensity in nuclear over cytosol was analyzed using a 4-parameter nonlinear logistic equation to determine the potency of AhR agonists.

Row | Structure (SMILES) | EC50
1 | CC1CCc2c1cc(C(=O)Nc1nccs1)c(=O)n2C (stereo not drawn) [Example 15, 1,5-Dimethyl-2-oxo-N-thiazol-2-yl-6,7-dihydro-5H-cyclopenta[b]pyridine-3-carboxamide] | 1.93 nM
2 | C[C@@H]1CCc2c1cc(C(=O)Nc1ncco1)c(=O)n2C [Example 74, (5R)-1,5-Dimethyl-N-oxazol-2-yl-2-oxo-6,7-dihydro-5H-cyclopenta[b]pyridine-3-carboxamide] | 19 nM
3 | CC1CCc2c1c(O)c(C(=O)Nc1ncc(C(F)(F)F)cn1)c(=O)n2C (single isomer, unassigned) [Example 98, 4-Hydroxy-1,5-dimethyl-2-oxo-N-[5-(trifluoromethyl)pyrimidin-2-yl]-6,7-dihydro-5H-cyclopenta[b]pyridine-3-carboxamide] | 0.342 nM
4 | CC1CCc2c1c(O)c(C(=O)Nc1ccccn1)c(=O)n2C (single isomer, unassigned) [Example 90, 4-Hydroxy-1,5-dimethyl-2-oxo-N-(2-pyridyl)-6,7-dihydro-5H-cyclopenta[b]pyridine-3-carboxamide] | 2.89 nM
5 | Cn1c2c(c(O)c(C(=O)Nc3ncc(F)cn3)c1=O)C(C)(C)CC2 [Example 43, N-(5-Fluoropyrimidin-2-yl)-4-hydroxy-1,5,5-trimethyl-2-oxo-6,7-dihydrocyclopenta[b]pyridine-3-carboxamide] | 0.973 nM
6 | Cn1c2c(c(O)c(C(=O)Nc3ccccc3)c1=O)CC(C)(C)CC2 [Example 110, 4-Hydroxy-1,6,6-trimethyl-2-oxo-N-phenyl-7,8-dihydro-5H-quinoline-3-carboxamide] | 2.27 nM
7 | CC1CCc2c1c(O)c(C(=O)Nc1ccc(C(F)(F)F)cn1)c(=O)n2C (stereo not drawn) [Example 33, 4-Hydroxy-1,5-dimethyl-2-oxo-N-[5-(trifluoromethyl)-2-pyridyl]-6,7-dihydro-5H-cyclopenta[b]pyridine-3-carboxamide] | 2.64 nM
8 | CC(C)CCNC(=O)c1c(O)c2c(n(C)c1=O)CCCC2 [Example 111, 4-Hydroxy-N-isopentyl-1-methyl-2-oxo-5,6,7,8-tetrahydroquinoline-3-carboxamide] | 10.3 nM
9 | CC1CCc2c1c(O)c(C(=O)Nc1ccns1)c(=O)n2C (single isomer, unassigned) [Example 36, 4-Hydroxy-N-isothiazol-5-yl-1,5-dimethyl-2-oxo-6,7-dihydro-5H-cyclopenta[b]pyridine-3-carboxamide] | 2.78 nM
10 | CC1CCc2c1cc(C(=O)NC1CCCC1)c(=O)n2C (single isomer, unassigned) [Example 61, N-Cyclopentyl-1,5-dimethyl-2-oxo-6,7-dihydro-5H-cyclopenta[b]pyridine-3-carboxamide] | 42 nM
11 | C[C@H]1CCc2c1cc(C(=O)Nc1ncco1)c(=O)n2C [Example 75, (5S)-1,5-Dimethyl-N-oxazol-2-yl-2-oxo-6,7-dihydro-5H-cyclopenta[b]pyridine-3-carboxamide] | 17.7 nM
12 | Cn1c2c(cc(C(=O)Nc3ccccc3)c1=O)CC(C)(C)CC2 [Example 105, 1,6,6-Trimethyl-2-oxo-N-phenyl-7,8-dihydro-5H-quinoline-3-carboxamide] | 0.64 nM
13 | CC1CCc2c1cc(C(=O)Nc1ccc(C(F)(F)F)cn1)c(=O)n2C (stereo not drawn) [Example 4, 1,5-Dimethyl-2-oxo-N-[5-(trifluoromethyl)-2-pyridyl]-6,7-dihydro-5H-cyclopenta[b]pyridine-3-carboxamide] | 1.82 nM
14 | CC1CCc2c1cc(C(=O)Nc1ncccc1F)c(=O)n2C (stereo not drawn) [Example 5, N-(3-Fluoro-2-pyridyl)-1,5-dimethyl-2-oxo-6,7-dihydro-5H-cyclopenta[b]pyridine-3-carboxamide] | 16.9 nM
15 | C[C@@H]1CCc2c1cc(C(=O)Nc1cnsc1)c(=O)n2C [Example 20, (5R)-N-Isothiazol-4-yl-1,5-dimethyl-2-oxo-6,7-dihydro-5H-cyclopenta[b]pyridine-3-carboxamide] | 5.23 nM
16 | Cn1c2c(cc(C(=O)Nc3ccccc3)c1=O)CCCCC2 [Example 109, 1-Methyl-2-oxo-N-phenyl-6,7,8,9-tetrahydro-5H-cyclohepta[b]pyridine-3-carboxamide] | 1.04 nM
17 | CC1CCc2c1c(O)c(C(=O)Nc1ccccn1)c(=O)n2C (single isomer, unassigned) [Example 89, 4-Hydroxy-1,5-dimethyl-2-oxo-N-(2-pyridyl)-6,7-dihydro-5H-cyclopenta[b]pyridine-3-carboxamide] | 2.33 nM
18 | CCN1CCc2c(cc(C(=O)Nc3ccccc3)c(=O)n2C)C1 [Example 107, 6-Ethyl-1-methyl-2-oxo-N-phenyl-7,8-dihydro-5H-1,6-naphthyridine-3-carboxamide] | 108 nM
19 | CC1CCc2cc(C(=O)Nc3ccccc3)c(=O)n(C)c21 (stereo not drawn) [Example 52, 1,7-Dimethyl-2-oxo-N-phenyl-6,7-dihydro-5H-cyclopenta[b]pyridine-3-carboxamide] | 6.4 nM
20 | CC1CCc2c1c(O)c(C(=O)Nc1nccc(C(F)(F)F)n1)c(=O)n2C (stereo not drawn) [Example 31, 4-Hydroxy-1,5-dimethyl-2-oxo-N-[4-(trifluoromethyl)pyrimidin-2-yl]-6,7-dihydro-5H-cyclopenta[b]pyridine-3-carboxamide] | 2.4 nM
21 | CC1CCc2c1cc(C(=O)Nc1nccs1)c(=O)n2C (single isomer, unassigned) [Example 63, 1,5-Dimethyl-2-oxo-N-thiazol-2-yl-6,7-dihydro-5H-cyclopenta[b]pyridine-3-carboxamide] | 2.55 nM
22 | CC1CCc2c1cc(C(=O)Nc1ccc(C(F)(F)F)cn1)c(=O)n2C (single isomer, unassigned) [Example 58, 1,5-Dimethyl-2-oxo-N-[5-(trifluoromethyl)-2-pyridyl]-6,7-dihydro-5H-cyclopenta[b]pyridine-3-carboxamide] | 3.59 nM
23 | CC(C)C1CCc2c1cc(C(=O)Nc1ncc(F)cn1)c(=O)n2C (single isomer, unassigned) [Example 113, N-(5-fluoropyrimidin-2-yl)-5-isopropyl-1-methyl-2-oxo-6,7-dihydro-5H-cyclopenta[b]pyridine-3-carboxamide] | 11.2 nM
24 | CC1CCc2c1c(O)c(C(=O)Nc1ncco1)c(=O)n2C (single isomer, unassigned) [Example 35, 4-Hydroxy-1,5-dimethyl-N-oxazol-2-yl-2-oxo-6,7-dihydro-5H-cyclopenta[b]pyridine-3-carboxamide] | 4.42 nM
25 | CC1CCc2c1c(O)c(C(=O)Nc1ncc(F)cn1)c(=O)n2C (stereo not drawn) [Example 30, N-(5-Fluoropyrimidin-2-yl)-4-hydroxy-1,5-dimethyl-2-oxo-6,7-dihydro-5H-cyclopenta[b]pyridine-3-carboxamide] | 1.62 nM
26 | C[C@H]1CCc2c1cc(C(=O)Nc1ncc(F)cn1)c(=O)n2C [Example 13, (5S)-N-(5-Fluoropyrimidin-2-yl)-1,5-dimethyl-2-oxo-6,7-dihydro-5H-cyclopenta[b]pyridine-3-carboxamide] | 4.67 nM
27 | CC1CCc2c1c(O)c(C(=O)Nc1ncc(C(F)(F)F)cn1)c(=O)n2C (single isomer, unassigned) [Example 97, 4-Hydroxy-1,5-dimethyl-2-oxo-N-[5-(trifluoromethyl)pyrimidin-2-yl]-6,7-dihydro-5H-cyclopenta[b]pyridine-3-carboxamide] | 0.709 nM
